{
  "source": "patent US20260216166A1",
  "about": "“COMPOUND FOR TREATMENT OF ERECTILE DYSFUNCTION” (Initiator Pharma A/S, priority 2023, published 2026)",
  "key": {"[1]": {"tested_on": "male subjects with erectile dysfunction (ED)", "assay": "Treatment-emergent adverse events after repeat single oral doses in male subjects with ED", "assay_type": "in vivo, human", "method": "Treatment-related adverse events are adverse events which could either be possibly or probably related to the treatment.\n130 subjects were divided into 3 groups upon which the study was conducted in parallel. Each subject was dosed on four occasions with either 5 mg IP2015, 10 mg IP2015 or matched placebo. In each group, subjects were randomised evenly to each of the three study treatments and received the same treatment at each visit.\nThere were three potential study treatments of 5 mg IP2015, 10 mg IP2015 or matched placebo. In each group, subjects were randomised evenly to each of the three study treatments and received the same treatment on each visit. IP2015 or matched placebo was administered once in the morning of Week 1 (Day 1), Week 2, Week 3, and Week 4 as an oral solution in the fasted state. The dose was taken with 240 ml of water at room temperature. Subjects had fasted 2 hours prior to dosing until 4 hours postdose. Water was allowed ad libitum except for 1 hour before and 1 hour after dosing.\nEfficacy was assessed through the International Index of Erectile Function (IIEF)-15 questionnaire. The change from baseline in responses to questions of the IIEF-15 questionnaire, including questions regarding erectile function, orgasmic function, sexual desire, intercourse satisfaction and overall satisfaction domain scores, was determined at different time points of the study. RigiScan assessments during the stimulus assessment, and sperm count and motility by semen sample collection was used for efficacy evaluation. Safety was assessed through AE reporting, 12-lead ECG, vital signs, physical examinations and clinical laboratory evaluations. Pharmacokinetics was assessed by blood sampling."}, "[2]": {"assay": "Phase II single oral dose pharmacokinetics in male patients with ED", "assay_type": "in vivo", "settings": "human, plasma, 10 mg single oral dose; for Tmax: male, po, 10 mg", "method": "The study was an exploratory Phase II, randomised, placebo-controlled, double-blind, crossover study, investigating the effects of a single oral dose of IP2015 on erectile function in males with ED. A dose level of 10 mg was selected. Patients were enrolled into two cohorts. Both cohorts participated in two periods (Period 1 and Period 2) and received a single dose of IP2015 and a single dose of placebo.\nThe IP2015 at a dose of 10 mg or matched placebo was administered once on the morning of Day 1 (in Period 1 and Period 2) as an oral solution in the fasted state. The dose was taken with 240 ml of water at room temperature. Subjects/patients were fasted overnight prior to dosing until 4 hours postdose. Water was allowed ad libitum except for 1 hour before and 1 hour after dosing.\nThe study also evaluated the plasma PK concentrations and parameters including but not limited to; AUC0-t, AUC0-∞, Cmax, tmax and T½ in male patients with ED. Blood samples for the determination of plasma concentrations of IP2015 were collected at predose, and 1, 4, 8 (post-stimulus challenge), and 24 hours postdose in each treatment period. The exploratory endpoint was the possible relationship between plasma PK levels and PD response as measured by RigiScan data.\nPlasma samples for the determination of concentrations of IP2015 were analysed by using a validated liquid chromatography-tandem mass spectrometry method. The RigiScan Plus Monitor was used for efficacy during the stimulus challenge.\nSafety parameters were listed and summarised using descriptive statistics. Pharmacokinetic parameter estimates were calculated using noncompartmental methods. Pharmacokinetic data were listed for each subject/patient and summarised by descriptive statistics."}},
  "note": "Entries after “also recorded” stand apart in the source; their conditions may differ. Read-outs that look alike come from different tables or passages of the source.",
  "data": [
    {"compound": "COc1cc2ccc(OC3CC4CCC(C3)N4)cc2oc1=O", "note": "(stereo not shown) [IP2015, 7-[(8-azabicyclo[3.2.1]octan-3-yl)oxy]-3-methoxy-chromen-2-one]", "values": [
      {"measurement": "Any TEAE, number of events", "setting": "[1]; 5 mg, N = 42", "result": 61},
      {"measurement": "Any TEAE, subjects (%)", "setting": "[1]; 5 mg, N = 42", "result": "32 (76.2%)"},
      {"measurement": "Dizziness, number of events", "setting": "[1]; 5 mg, N = 42", "result": 3},
      {"measurement": "Dizziness, subjects (%)", "setting": "[1]; 5 mg, N = 42", "result": "3 (7.1%)"},
      {"measurement": "Headache, number of events", "setting": "[1]; 5 mg, N = 42", "result": 15},
      {"measurement": "Headache, subjects (%)", "setting": "[1]; 5 mg, N = 42", "result": "11 (26.2%)"},
      {"measurement": "Mild TEAE, number of events", "setting": "[1]; 5 mg, N = 42", "result": 56},
      {"measurement": "Mild TEAE, subjects (%)", "setting": "[1]; 5 mg, N = 42", "result": "29 (69.0%)"},
      {"measurement": "Moderate TEAE, number of events", "setting": "[1]; 5 mg, N = 42", "result": 5},
      {"measurement": "Moderate TEAE, subjects (%)", "setting": "[1]; 5 mg, N = 42", "result": "3 (7.1%)"},
      {"measurement": "Nausea, number of events", "setting": "[1]; 5 mg, N = 42", "result": 1},
      {"measurement": "Nausea, subjects (%)", "setting": "[1]; 5 mg, N = 42", "result": "1 (2.4%)"},
      {"measurement": "Related TEAE, number of events", "setting": "[1]; 5 mg, N = 42", "result": 19},
      {"measurement": "Related TEAE, subjects (%)", "setting": "[1]; 5 mg, N = 42", "result": "10 (23.8%)"},
      {"measurement": "Severe TEAE", "setting": "[1]; 5 mg, N = 42", "result": 0},
      {"measurement": "TEAEs, high dose compared to low dose", "setting": "[1]; 10 mg versus 5 mg", "result": "slightly increased in the high dose compared to the low dose"},
      {"measurement": "Any TEAE, number of events", "setting": "[1]; 10 mg, N = 43", "result": 141},
      {"measurement": "Any TEAE, subjects (%)", "setting": "[1]; 10 mg, N = 43", "result": "34 (79.1%)"},
      {"measurement": "Dizziness, number of events", "setting": "[1]; 10 mg, N = 43", "result": 15},
      {"measurement": "Dizziness, subjects (%)", "setting": "[1]; 10 mg, N = 43", "result": "12 (27.9%)"},
      {"measurement": "Headache, number of events", "setting": "[1]; 10 mg, N = 43", "result": 27},
      {"measurement": "Headache, subjects (%)", "setting": "[1]; 10 mg, N = 43", "result": "16 (37.2%)"},
      {"measurement": "Mild TEAE, number of events", "setting": "[1]; 10 mg, N = 43", "result": 132},
      {"measurement": "Mild TEAE, subjects (%)", "setting": "[1]; 10 mg, N = 43", "result": "33 (76.7%)"},
      {"measurement": "Moderate TEAE, number of events", "setting": "[1]; 10 mg, N = 43", "result": 9},
      {"measurement": "Moderate TEAE, subjects (%)", "setting": "[1]; 10 mg, N = 43", "result": "7 (16.3%)"},
      {"measurement": "Nausea, number of events", "setting": "[1]; 10 mg, N = 43", "result": 15},
      {"measurement": "Nausea, subjects (%)", "setting": "[1]; 10 mg, N = 43", "result": "8 (18.6%)"},
      {"measurement": "Related TEAE, number of events", "setting": "[1]; 10 mg, N = 43", "result": 84},
      {"measurement": "Related TEAE, subjects (%)", "setting": "[1]; 10 mg, N = 43", "result": "23 (53.5%)"},
      {"measurement": "Severe TEAE", "setting": "[1]; 10 mg, N = 43", "result": 0},
      {"measurement": "severe side effects", "setting": "[1]; any of the doses (5 mg, 10 mg)", "result": "No severe side effects were observed; also recorded: No severe TEAEs were present"},
      {"measurement": "treatment-emergent adverse effects versus placebo group", "setting": "[1]; low-dose (5 mg)", "result": "comparable to the placebo group"},
      {"measurement": "Cmax", "setting": "[2]", "result": 15.7, "unit": "ng/mL"},
      {"measurement": "AUC(0-t)", "setting": "[2]; read-out: mean AUC0-t", "result": 287, "unit": "ng·h/mL"},
      {"measurement": "Tmax", "setting": "[2]; read-out: median tmax", "result": 4, "unit": "h"},
      {"measurement": "Tmax", "setting": "[2]; read-out: tmax range", "result": "1 to 8.53", "unit": "h"}
    ]}
  ]
}
